One series has as its system pNL4-3 SP1-V7A. The series can be described thus: CA-SP1 accumulation assay, SP1-V7A derivative. Conditions: 100 nM compound, HeLa or 293T cells. Format: cell-based, HIV-1. The method in brief:
(§1)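 HeLa or 293T cells transfected with proviral clone, maturation inhibitors present through transfection and labeling; at 24 h, [^35S]Met/Cys labeling 2-3 h. Virions pelleted by ultracentrifugation, lysed, CA and CA-SP1 resolved by SDS-PAGE and quantified by phosphorimaging.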

A short description of series [1]: Cytotoxicity assay CellTiter-Blue, HeLa. Conditions: human; HeLa cells, 4 to 8 days; mean ± SEM, three experiments. Format: cell-based. As to the method:
(§2) Cytotoxicity assays. Cytotoxicity was measured with CellTiter-Blue® Cell Viability Assay according to the manufacturer's protocol (Promega). Two cell lines, MT-4 and HeLa, were used in this assay. Cells were incubated with serial dilution of compounds at 37° C. for 4 to 8 days and subjected to CellTiter-Blue Reagent. The fluorescent signal was measured at 560 nm Ex/590 nm Em by a plate reader (TECAN, Infinite® M1000 PRO). The 50% cytotoxic concentrations (CC50s) were defined as compound concentrations at which the fluorescent signals were reduced by 50%/relative to the no-inhibitor (DMSO only) controls using GraphPad Prism 6 software and are reported in Table 1.

In the next series the test system is WT pNL4-3. The series can be described thus: CA-SP1 accumulation assay, WT NL4-3. The format is cell-based, HIV-1. As to conditions: 100 nM compound, HeLa or 293T cells. The procedure, abridged: as §1
Series [2] relates to pNL4-3 SP1-V7A in MT-4 cells. Nature of the series: Antiviral assay in MT-4 cells (RT readout), SP1-V7A. Format: cell-based, HIV-1. Conditions: Human immunodeficiency virus 1, MT4, 96 h, read-out: Antiviral Assay IC50 (nM) SP1 V7A. As to the method: (§3) Cell culture, plasmids and transfections. The MT-4 T-cell line was maintained in RPMI-1640 medium supplemented with 10% (vol/vol) fetal bovine serum (FBS), 2 mM glutamine, 100 U/mL penicillin and 100 μg/mL streptomycin at 37° C. in a humidified 5% CO2 atmosphere. HeLa and 293T cells were maintained in Dulbecco's modified Eagle's medium (DMEM) supplemented with 5% (vol/vol) FBS, 2 mM glutamine, 100 U/mL penicillin and 100 μg/mL streptomycin. Molecular clones used in this study were WT pNL4-3 and the derivative encoding a Val-to-Ala mutation at SP1 residue 7, referred to as SP1-V7A. The MT-4 T-cell line was transfected the DEAE/dextran procedure; HeLa and 293T cells were transfected with linear polyethylenimine (L-PEI) or Lipofectamine 2000 (Invitrogen) as recommended by the supplier.
(§4) Antiviral assays. To produce HIV-1 stocks, 293T cells were transfected with WT pNL4-3 or the SP1-V7A derivative and culture supernatants were collected 24 h post transfection. RT-normalized virus supernatants were used to infect MT-4 cells at room temperature for 30 min. Cells were then cultured in the presence of serial dilutions of compounds. […] The IC50s in primary peripheral blood mononuclear cells (PBMCs) were calculated with a multi-clade panel of HIV-1 isolates by Southern Research Institute (Frederick, Md.). […]

The test system of another series is WT pNL4-3 in MT-4 cells. The series can be described thus: Antiviral assay in MT-4 cells (RT readout), WT NL4-3. As to conditions: Human immunodeficiency virus 1, NL43, MT4, 96 h, read-out: Antiviral Assay IC50 (nM) NL4-3. The format is cell-based, HIV-1. As to the method:
as §3, §4

Series [3] can be described thus: Cytotoxicity assay CellTiter-Blue, MT-4. As to conditions: human; MT-4 cells, 4 to 8 days; mean ± SEM, three experiments. The format is cell-based. As to the method: as §2

Structures can show the parent of a compound that is named as a salt.

Usually CC50 stands for the concentration giving 50% cytotoxicity. Low readings indicate harm at low concentration, high ones better tolerance by the cells. For orientation: IC50 means the point on the concentration scale where inhibition reaches its midpoint. With `C=C(C)[C@@H]1CC[C@]2(CCNC3CCN(CCOC)CC3)CC[C@]3(C)[C@H](CC[C@@H]4[C@@]5(C)CC[C@H](OC(=O)CC(C)(C)CC(=O)O)C(C)(C)[C@@H]5CC[C@]43C)[C@@H]12` [Compound 51g, (3β)-17-[2-[[1-(2-Methoxyethyl)piperadin-4-yl]amino]ethyl]-28-norlup-20(29)-en-3-ol, 3-(5-Hydrogen 3,3-Dimethylpentanedioate), Bis(trifluoroacetate) Salt], the “% CA-SP1 Accumulation 100 nM SP1 V7A” value in the series on pNL4-3 SP1-V7A was 46.5 (3) %. Moreover, the cytotoxic concentration (CC50) in series [1] is 551 ± 83 nM; in series [3], 406 ± 48 nM. Besides, the “% CA-SP1 Accumulation 100 nM NL4-3” value in the series on WT pNL4-3 was 85.0 (2) %. The figures for the IC50 (in series [2]; with WT pNL4-3 in MT-4 cells) were 19 ± 6 nM and 2 ± 0.5 nM, respectively.
